In BindingDB's records for doi:10.7270/Q29P301W (University of Pittsburgh, 2006):

Biological target: T1, Dual specificity protein phosphatase 6 (Rattus norvegicus, UniProt Q64346)
T1 sequence (Q64346 whole entry): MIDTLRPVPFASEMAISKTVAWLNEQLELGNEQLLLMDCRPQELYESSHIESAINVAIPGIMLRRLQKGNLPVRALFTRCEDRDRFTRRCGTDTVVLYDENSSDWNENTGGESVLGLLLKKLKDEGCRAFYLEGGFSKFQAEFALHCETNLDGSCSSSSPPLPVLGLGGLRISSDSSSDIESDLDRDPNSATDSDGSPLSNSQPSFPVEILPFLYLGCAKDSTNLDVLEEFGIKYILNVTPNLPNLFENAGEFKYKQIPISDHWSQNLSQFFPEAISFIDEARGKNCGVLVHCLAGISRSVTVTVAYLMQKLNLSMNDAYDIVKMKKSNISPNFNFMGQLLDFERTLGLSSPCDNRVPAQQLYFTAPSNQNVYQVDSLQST
Test: Confirmatory specificity testing of DUSP6 inhibitors, biochemical, cell-free, concentration series (AID 452)

Row | Structure (SMILES) | IC50 [µM]
1 | CCn1nc(-c2ccccc2)nc2c(=O)n(C)c(=O)nc1-2 [1-Ethyl-6-methyl-3-phenyl-1H-pyrimido[5,4-e][1,2,4]triazine-5,7-dione] | 0.159
2 | CCCCC[C@H](O)C=C[C@H]1C=CC(=O)[C@@H]1C/C=C\CCCC(=O)O [(Z)-7-[(1R,5S)-2-oxidanylidene-5-[(E,3S)-3-oxidanyloct-1-enyl]cyclopent-3-en-1-yl]hept-5-enoic acid] | > 50

Now from value to molecule:

Row | IC50 [µM] | Structure (SMILES)
3 | > 50 | Cc1ccc2c(c1C)NC(C(=O)O)C1CC=CC21 (stereo not given)
4 | > 50 | CC(C)Cn1c(N)c(C(=O)COC(=O)c2cc(-c3ccco3)nc3ccccc23)c(=O)n(C)c1=O [2-(2-furanyl)-4-quinolinecarboxylic acid [2-[4-amino-1-methyl-3-(2-methylpropyl)-2,6-dioxo-5-pyrimidinyl]-2-oxoethyl] ester]
5 | 41.2 | COc1ccc(Cn2c(C)nc3c(c2=O)c2nc4ccccc4nc2n3Cc2ccco2)cc1 [MLS000079944]
